According to US20140288010A1, “Compositions and Methods for Increasing Stem Cell Survival” (Georgia Regents Research Institute, Inc., priority 2013, published 2014):

Legend:
CXCR4 = CXCR4 (Mus musculus, UniProt P70658); details: BM supernatant of 3 or 18 month old mice normalized to 150 pg/ml SDF-1; both age groups
Description: BM supernatant from 3 or 18 month old mice were normalized by dilution with saline to yield 150 pg/ml of SDF-1 as determined by ELISA. The normalized BM supernatant was added to the lower chamber and the cells (either pretreated with AMD3100 or not) were permitted to migrate for 6 hours.

18 month MSCs [1] = test: Transwell migration of 18 month MSCs; assay type: cell-based, mouse; details: 6 hours treatment
Text: The data shown are averages of quadruplicate wells. Bar graph represents RFU of migrated cells normalized to vehicle control group +/−SEM. *p<0.05 verse control group.
(§1) Low passage MSCs from 18 and 24 month old adult male C57BL/6 mice, procured from the GHSU Institute of Regenerative and Reparative Medicine Stem Cell Core (IRRM-SSC) were used. This age range was chosen based on associated changes in bone formation and mass in the comparatively aged mice (Zhang, et al., Journal of Bone and Mineral Research, 23:1118-1128 (2008)).
(§2) Recombinant active SDF-1β (i.e. full length amino acids 1-72; 100 ng/mL; Peprotech), Recombinant Mouse DPPIV/CD26 enzyme (0.01 μg; R&D) cleaved (Cl.) SDF-1β (aa3-72; 100 ng/mL) (Christopherson, et al., Blood, 101:4680-4686 (2003)), and AMD3100 (400 μM; R&D), an antagonist of SDF-1/CXCR4 axis (Liu, et al., Protein & Cell, 2:845-854 (2011)).
The migration efficiency of 18 month MSCs in response to SDF-1β, its cleaved form and AMD3100, as a positive control, was tested using a transwell migration system.

[2] = tested on: Smad1/5/8-mediated BMP-2 signal transduction; test: BMP receptor signaling by Western blot ((p)Erk1/2, (p)Smad1/5/8) in BMSCs; assay type: cell-based, mouse; details: for effect of pretreatment on SDF-1β potentiation of BMP-2 signal transduction: pretreatment 4 h, 600 μM AMD3100 or 50 μM U0126, before 300 ng/ml BMP-2
Text: FIGS. 17A and 17D are images of autoradiograms of western blots detecting pErk 1/2, Erk1/2, pSmad 1/5/8, Smad 1/5/8, and beta-actin (loading control) of isolated BMSC cells: Tet-Off-SDF-1β with and without Dox, BMP2, AMD3100, U0126, and combinations thereof (FIG. 17A) and Tet-Off-EV controls with and without Dox, BMP2, AMD3100, U0126, and combinations thereof (FIG. 17D). FIGS. 17B-C and 17E-F are bar graphs showing densitometry quantification of immunoreactive bands of FIGS. 17A and 17D as a ratio of pErk 1/2 to Erk1/2 (17B and 17E) and pSmad 1/5/8 to Smad 1/5/8 (17C and 17F).
(§3) BMP receptor signaling was assessed by Western blot. Serum-starved BMSCs were pretreated with 600 μM AMD3100, 50 μM U0126, or vehicle for 4 h prior to stimulation with 300 ng/ml BMP-2 for 30 min. Whole cell lysates were subjected to SDS-PAGE, electroblotted onto PVDF membranes, and probed for (p)Erk1/2 and (p)Smad1/5/8. Transwell migration assays were performed using conditioned media from genetically engineered BMSCs in lower chambers. Serum-starved Jurkat cells or BMSCs at 5.0-8.0×10^5 cells/ml in upper chambers were allowed to migrate across the 8-μm membranes for 4-8 h prior to quantifying total DNA with CyQuant GR dye at 485/535 nm. Apoptosis was induced with 1.0 mM H2O2 for 6 h. Cell death was quantified by trypan blue staining and Western blot analysis of cleaved caspase-3 and PARP. Autophagy was evaluated by Western blot for LC3-II.

18 month MSCs [3] = test: Osteogenic differentiation of MSCs, Alizarin red staining for calcium deposition; assay type: cell-based, mouse; details: for increase of Alizarin red staining for calcium compared to control cells: osteogenic differentiation of MSCs, terminal stages
Text: as §1
To determine the influence of modulating SDF-1 signaling in osteogenic differentiation of 18 month MSCs, the calcium deposition at the terminal stages of differentiation was measured. […] However, the SDF-1β stimulated calcium-staining was reduced by ˜8 fold (FIG. 9B) with co-treatment with C1.SDF-10.

SDF-1 = test: qRTPCR of SDF1β, CXCR4 and LC3B mRNA in MSCs after metformin treatment; assay type: cell-based, mouse; details: MSCs treated with metformin compared to controls
LC3B, p62, pERK = test: Western blot of LC3B, p62 and pERK in aged MSCs (autophagy and MAPK pathway); assay type: cell-based, mouse
Text: Low passage MSCs from 18 and 24 month old adult male C57BL/6 mice, procured from the GHSU Institute of Regenerative and Reparative Medicine Stem Cell Core (IRRM-SSC) were used.
Redistribution of LC3B from cytosol (18 kDa) to an autophagosome (16 kDa) is an indication of autophagy induction. P62, also known as sequestosome 1/SQSTM1, is a ubiquitously expressed protein, best characterized for selective autophagy, directly interacts with LC3B on the phagophore through the LC3-interacting region and then degraded.

BMSCs [4] = test: Cell viability after H2O2 treatment by trypan blue exclusion staining; assay type: cell-based, mouse; details: 1.0 mM H2O2 for 6 h; p<0.001
Text: BMSCs were transduced with retroviral Tet-Off expression vectors. The sequential protocol of retrovirus production, two-step infection, and selection to generate double-stable Tet-Off-SDF-1β BMSCs and Tet-Off-EV control BMSCs has been described previously (Herberg, et al., Tissue Eng Part A, 19:1-13 (2013)). In brief, 293GPG packaging cells (Ory, et al., Proc. Natl. Acad. Sci. USA, 93:11400-11406 (1996)) were transfected at passage 8 with retroviral Tet-Off expression vectors containing the SDF-1β coding sequence, or empty control (cat#632105) (Clontech Laboratories, Mountain View, Calif., USA). […]
The viability of BMSCs in response to H2O2 treatment was analyzed using standard trypan blue exclusion staining Cells were washed with PBS, lifted with trypsin/EDTA, and resuspended with normal growth medium. Following 1:5 dilution, BMSC suspensions were mixed with an equal volume of 0.4% trypan blue staining solution (cat#15250061) (Gibco, Invitrogen), and counted in 5 inner squares using a hemacytometer with cover slip (Hausser Scientific, Horsham, Pa., USA).
BMP receptor signaling was assessed by Western blot. […] Serum-starved Jurkat cells or BMSCs at 5.0-8.0×10^5 cells/ml in upper chambers were allowed to migrate across the 8-μm membranes for 4-8 h prior to quantifying total DNA with CyQuant GR dye at 485/535 nm. […] Autophagy was evaluated by Western blot for LC3-II.

AMPK-α1 and LC3B = test: qRTPCR of AMPK-α1 and LC3B mRNA in MSCs; assay type: cell-based, mouse; details: 24 month MSCs; 100 ng/ml for 48 hours
Description: FIG. 7 is bar graph showing the results of an assay measuring the level of AMPK-alpha1 and LC3B mRNA in 24 month MSCs control cells and cells treated with 100 ng/ml of active SDF-1β for 48 hours. *p<0.05 compared to control group.
as §1, §2

[5] = tested on: CXCR4-expressing Jurkat cells; test: Transwell migration toward conditioned media from genetically engineered BMSCs, Jurkat cells; assay type: cell-based; details: 4-8 h, p<0.01
Description: as §3

BMSCs [6] = test: Transwell migration toward conditioned media from genetically engineered BMSCs, BMSCs; assay type: cell-based, mouse; details: 4-8 h, p<0.01
Description: as §3

CXCR4, sequence (P70658 whole entry): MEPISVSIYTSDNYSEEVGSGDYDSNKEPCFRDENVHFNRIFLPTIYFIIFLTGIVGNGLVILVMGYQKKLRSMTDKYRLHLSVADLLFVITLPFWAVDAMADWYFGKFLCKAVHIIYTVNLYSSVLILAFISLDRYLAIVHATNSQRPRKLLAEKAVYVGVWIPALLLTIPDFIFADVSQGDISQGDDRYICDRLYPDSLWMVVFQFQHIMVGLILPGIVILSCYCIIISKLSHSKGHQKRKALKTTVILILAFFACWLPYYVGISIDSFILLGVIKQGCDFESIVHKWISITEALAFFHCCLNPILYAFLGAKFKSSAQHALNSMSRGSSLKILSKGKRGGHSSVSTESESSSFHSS

c1cc(CN2CCCNCCNCCCNCC2)ccc1CN1CCCNCCNCCCNCC1 [AMD3100]
migration of MSCs toward BM supernatant after pretreatment of the cells (CXCR4): blocked all migration
migration of MSCs in transwell migration system relative to control (18 month MSCs [1]): suppressed
effect of pretreatment on SDF-1β potentiation of BMP-2 signal transduction [2]: abolished

c1cc(-c2cnn3cc(-c4ccc(OCCN5CCCCC5)cc4)cnc23)ccn1 [Compound C]
osteogenic differentiation of MSCs (Alizarin red staining) (18 month MSCs [3]): significantly reduced

N#CC(=C(/N)Sc1ccccc1N)/C(C#N)=C(\N)Sc1ccccc1N [U0126]
effect of pretreatment on SDF-1β potentiation of BMP-2 signal transduction [2]: abolished

CN(C)C(=N)N=C(N)N [metformin]
expression of endogenous SDF-1 (SDF-1): increase expression of endogenous SDF-1
LC3B and p62 levels on further incubation (LC3B, p62, pERK; 18 month and 24 month old MSCs, 24 or 48 h of metformin treatment): gradual reduction of LC3B and p62
increase of Alizarin red staining for calcium compared to control cells (18 month MSCs [3]): ~20 fold

SDF-1β: Recombinant active SDF-1β, full length amino acids 1-72 (Peprotech); in Example 9 overexpressed in engineered BMSCs
apoptosis-resistance in genetically engineered BMSCs (BMSCs [4]): significant apoptosis-resistance
AMPK-α1 and LC3B mRNA (qRTPCR) (AMPK-α1 and LC3B): regulated autophagy at transcriptional level
migratory response of CXCR4-expressing Jurkat cells [5]: significantly promoted
migration of MSCs in transwell migration system relative to control (18 month MSCs [1]): strong migrating potential
LC3B and p62 levels on further incubation (LC3B, p62, pERK; 18 month MSCs, 24 or 48 h, 100 ng/mL): gradual disappearance of LC3B and p62
effect on MAPK pathway and autophagy (LC3B distribution) (LC3B, p62, pERK; 18 month MSCs, six hours of treatment, 100 ng/mL): led to MAPK pathway activation and induced autophagy by distributing LC3B
Smad1/5/8-mediated BMP-2 signal transduction via Erk1/2 phosphorylation ([2]; SDF-1β overexpressed in genetically engineered BMSCs, 300 ng/ml BMP-2 for 30 min, p<0.05): significantly potentiated
increase of Alizarin red staining for calcium compared to control cells (18 month MSCs [3]): ~20 fold
migratory response of BMSCs (BMSCs [6]): significantly promoted
